The values below come from patent US7838516B2, “15 β-substituted steroids having selective estrogenic activity” (priority 2004, dated 2010).

The structures appear in SMILES notation.

For series [1], the system named is Cynomolgus monkey uterine tissue (endometrium). Briefly: Histopathological evaluation of Cynomolgus monkey uterine tissue after 8 week oral treatment. The format is in vivo. As to conditions: 8 weeks, average score per category, grades 0-5. As for the experimental part: Histopathological evaluation of Cynomolgus monkey uterine tissue was performed by a pathologist after an 8 week oral treatment with the test compound in four animals per treatment group. […] The following morphological characteristics were examined in H&E stained sections, based on the uterine phases of the normal menstrual cycle in Cynomolgus monkeys. • A. Follicular phase-like changes: • loose endometrial stroma • straight endometrial glands • hypertrophy of endometrial epithelium • mitotic figures • hypertrophy of myometrium • early angiogenesis (sprouting or early proliferation) • basal secretion • B. Luteal phase-like changes • pseudodecidually enlarged stromal cells • coiling of endometrial glands • late angiogenesis (spiral artery formation) • vacuolation of endometrial epithelium • luminal secretion • C. Ovariectomized or non-stimulated (atrophic) endometrium • compact endometrial stroma • atrophy of endometrial epithelium • atrophy of endometrial glands • atrophy of myometrium The severity of each of these above-mentioned findings was scored using a scale of grading: • grade 0: finding not present • grade 1: minimal, very few, very small • grade 2: slight, few, small • grade 3: moderate, moderate number, moderate size • grade 4: marked, many, large • grade 5: massive, extensive number, extensive size For each animal this grading was done. Then the average score per treatment group was calculated for each characteristic. Finally, an average score per category, atrophic, follicular- or luteal phase-like, was calculated from the average individual characteristics. A favourable endometrial safety profile for a compound is characterized by less compound-induced follicular phase-like activity combined with more luteal phase-like characteristics and/or atrophic endometrium.

Series [2] deals with T1, human estrogen receptor α (hERα) (Homo sapiens, UniProt P03372).
T1 sequence (P03372 1-595): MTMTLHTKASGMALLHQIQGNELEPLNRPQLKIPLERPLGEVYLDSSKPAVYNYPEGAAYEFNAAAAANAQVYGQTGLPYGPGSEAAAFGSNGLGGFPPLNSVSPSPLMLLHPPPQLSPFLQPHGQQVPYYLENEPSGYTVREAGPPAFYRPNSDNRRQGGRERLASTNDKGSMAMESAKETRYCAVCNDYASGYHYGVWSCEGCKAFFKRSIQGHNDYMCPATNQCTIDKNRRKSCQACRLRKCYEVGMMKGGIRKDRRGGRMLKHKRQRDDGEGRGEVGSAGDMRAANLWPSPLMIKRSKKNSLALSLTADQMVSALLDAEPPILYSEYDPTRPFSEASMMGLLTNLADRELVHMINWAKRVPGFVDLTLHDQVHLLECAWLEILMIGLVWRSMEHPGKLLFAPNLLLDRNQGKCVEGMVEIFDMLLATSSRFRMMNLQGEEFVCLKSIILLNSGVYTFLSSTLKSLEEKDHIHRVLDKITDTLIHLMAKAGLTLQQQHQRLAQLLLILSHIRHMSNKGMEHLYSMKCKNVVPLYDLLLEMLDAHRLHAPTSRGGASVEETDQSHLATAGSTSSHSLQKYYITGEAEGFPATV
Briefly: In vitro bioassay of estrogenic agonistic transactivation in recombinant CHO cells (hERα, rat oxytocin promoter, luciferase reporter). The format is cell-based. The method, then: (§1) The agonistic activity of compounds on the estrogen receptors was determined in an in vitro bioassay with recombinant Chinese hamster ovary (CHO) cells stably co-transfected with the human estrogen receptor α (hERα) or β (hERβ), the rat oxytocin promoter (RO) and the luciferase reporter gene (LUC). […] A more detailed description of the methodology can be found in De Gooyer M. E., Deckers G. H., Schoonen W. G. E. J., Verheul H. A. M. and Kloosterboer H. J., Steroids, Vol. 68, 2003, pp. 21-30.
(§2) ERα/ERβ selectivity is defined as the ratio ERα-potency/ERβ-potency.
Background: A reporter such as luciferase makes a cellular process visible.

The target in series [3] is human estrogen receptor β (hERβ) (Homo sapiens, UniProt Q92731). Briefly: In vitro bioassay of estrogenic agonistic transactivation in recombinant CHO cells (hERβ, rat oxytocin promoter, luciferase reporter). In kind it is cell-based. As for the experimental part:
as §1, §2

For series [4], the system named is progesterone-induced lordosis behavior in female ovariectomised rats. Briefly: Facilitation of progesterone-induced lordosis behavior in female ovariectomised rats. In kind it is in vivo, rat. As to conditions: oral dosing at 1 mg/kg.day, three days pre-treatment, then progestagen. From the text: Rat female sexual behavior is hormone dependent. In estrogen-primed female rats progesterone clearly enhances female sexual or lordosis behavior. However, progesterone is not effective in inducing lordosis in ovariectomised females that have not received estrogen (see also J. B. Becker, S. M. Breedlove and D. Crews (Eds.), Behavioral Endocrinology, 1992, pp. 82-84).
Females were pre-treated for three days with test compound followed by treatment with a progestagen on the fourth day. Four hours after progesterone treatment sexual behavior of the female rat was measured in the presence of a male rat by counting the number of lordosis responses during 10 minutes.

[5] abbreviates: relative to 17β-estradiol: (EC50 17β-estradiol/EC50 test compound)×100%, CHO cells, luciferase.

human estrogen receptor β (hERβ), sequence (Q92731 whole entry): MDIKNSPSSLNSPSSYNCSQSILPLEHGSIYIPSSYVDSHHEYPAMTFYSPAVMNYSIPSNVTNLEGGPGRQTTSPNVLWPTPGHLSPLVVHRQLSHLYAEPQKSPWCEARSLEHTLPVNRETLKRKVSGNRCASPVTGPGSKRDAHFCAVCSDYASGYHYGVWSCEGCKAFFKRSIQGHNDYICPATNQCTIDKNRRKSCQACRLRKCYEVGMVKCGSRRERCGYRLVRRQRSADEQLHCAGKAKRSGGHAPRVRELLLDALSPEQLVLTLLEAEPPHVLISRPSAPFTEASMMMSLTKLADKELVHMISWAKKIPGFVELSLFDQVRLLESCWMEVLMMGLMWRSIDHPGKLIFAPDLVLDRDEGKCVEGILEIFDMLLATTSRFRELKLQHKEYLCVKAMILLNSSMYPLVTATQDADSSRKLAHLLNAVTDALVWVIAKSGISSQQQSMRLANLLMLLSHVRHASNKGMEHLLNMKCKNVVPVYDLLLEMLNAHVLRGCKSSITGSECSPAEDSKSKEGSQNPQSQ

Consider `C#C[C@]1(O)C[C@@H](C)[C@H]2[C@@H]3[C@H](CC)Cc4cc(O)ccc4[C@H]3CC[C@@]21C` [Compound 8, 7α-ethyl-15β-methyl-19-nor-17α-pregna-1,3,5(10)-trien-20-yne-3,17β-diol], for which, in series [1] (40 μg/kg once daily oral), the “Monkey Endometrial profile (scores): Atrophic” value turned out to be 3.0, the “Monkey Endometrial profile (scores): Follicular” value worked out at 0.0 and the “Monkey Endometrial profile (scores): Luteal” value worked out at 0.0. In addition, in series [1] (200 μg/kg once daily oral), the “Monkey Endometrial profile (scores): Atrophic” value is reported as 2.3, the “Monkey Endometrial profile (scores): Follicular” value is recorded as 0.5 and the “Monkey Endometrial profile (scores): Luteal” value came out at 0.2. Moreover, in series [2] (ratio ERα-potency/ERβ-potency), the “ERα/ERβ-selectivity (potency)” value was 15.2. The “ERα-potency (%)” value in series [2] (setting [5]) stood at 23.45%. Besides, in series [3] (in words), the “agonist character at the estrogen β-receptor” value is given as “partial agonist”. The “ERβ-efficacy (%)” value in series [3] (maximal activation relative to maximal activation by 17β-estradiol) is on record as 40%. The “ERβ-potency (%)” value in series [3] (setting [5]) was 1.54%.
With `C#CC1(O)CC(C)C2C3C(CC)Cc4cc(OC(=O)C(C)(C)C)ccc4C3CCC21C` (stereo not drawn) [Compound 9a, 3-pivaloyloxy-7α-ethyl-15β-methyl-19-nor-17α-pregna-1,3,5(10)-trien-20-yne-17β-ol], the “in vivo estrogenic activity (facilitation of lordosis)” value in series [4] is recorded as “active estrogenic compounds”.
As for `C#C[C@]1(O)CC[C@H]2[C@@H]3CCc4cc(O)ccc4[C@H]3CC[C@@]21C` [Compound X, 17α-ethynyl-17β-estradiol, reference compound], in series [1] (40 μg/kg once daily oral), the “Monkey Endometrial profile (scores): Atrophic” value is recorded as 0, the “Monkey Endometrial profile (scores): Follicular” value was 2.8 and the “Monkey Endometrial profile (scores): Luteal” value is recorded as 0.4.
As to `C[C@]12CC[C@@H]3c4ccc(O)cc4CC[C@H]3[C@@H]1CC[C@@H]2O` [Compound Y, 17β-estradiol, reference compound], in series [1] (200 μg/kg once daily oral), the “Monkey Endometrial profile (scores): Atrophic” value is given as 0, the “Monkey Endometrial profile (scores): Follicular” value is listed as 3.6 and the “Monkey Endometrial profile (scores): Luteal” value is given as 0.2.
